Results as given in US20120196899A1, “METHODS AND PRODUCTS FOR TREATING INFLAMMATION” (Rock Creek Pharmaceuticals, Inc., priority 2010, published 2012).
“And” between values parts separate entries of the source, which are not always exact repeats. Equal entries are not always repeated.

Legend:
nAChR α7 = molecular target: T1, nAChR α7 (Homo sapiens, UniProt P36544); assay: nAChR α7 channel agonist assay (FLIPR, with PNU-120596); format: cell-based; details: with 10 μM PNU-120596; maximal stimulation not achieved
T1 construct: host or cells: CHO cells
Protocol: Therefore, the assay of agonist activity for either Ach or for the test articles was conducted in the presence of the positive allosteric modulator.

nAChR α4/β2 = molecular target: T2, nAChR α4/β2 (Homo sapiens, UniProt P17787+P43681); format: cell-based; details: 100 μM Ach + 0.3 μM epibatidine; not concentration-dependent, IC50 not determinable
T2 construct: host or cells: HEK293 cells, transient transfection
Protocol: (§1) The following three (3) channels were evaluated: • 1. nAChR α3/β4 (encoded by the human CHRNA3 and CHRNB4 gene and stably expressed in CHO cells); • 2. nAChR α4/β2 (CHRNA4 and CHRNB2 gene and transiently expressed in HEK293 cells); and • 3. nAChR α7 (encoded by the human nicotinic α7 gene coexpressed in CHO cells with the chaperone RIC-3 encoded by the human RIC3 gene).
(§2) The ability of each test article to act as an agonist, a positive allosteric modulator or antagonist of three nAChR receptor channels was evaluated in the presence of 0.1 atropine. Both test articles were evaluated for responses on each nAChR channel at eight (8) concentrations: 0.3, 1, 3, 10, 30, 100, 300, and 1000 μM (n=4 for each concentration).
HEK293 or CHO cells were transiently or stably transfected with the appropriate human ion channel cDNAs. Stable transfectants were selected by coexpression with the antibiotic-resistance gene(s) incorporated into the expression plasmid(s). […]
For FLIPR TETRA™ assay, cells were plated in 384-well black wall, flat clear bottom microtiter plates (Type: BD Biocoat Poly-D-Lysine Multiwell Cell Culture Plate) at 20,000 to 30,000 cells per well (384-well plate). Cells were incubated at 37° C. overnight or until the cells reached a sufficient density in the wells (near confluent monolayer) to use in fluorescence assays. […]

[1] = system: TNFα-induced NFκB activity; assay: NFκB luciferase assay (inhibition of TNFα-induced NFκB activity) in HEK293 reporter cells; format: cell-based, Human; details: HEK293 reporter cells challenged with TNFα for three hours
Protocol: The smokeless tobacco used in these experiments was plain long-leaf Copenhagen tobacco purchased from a local vendor. Crude extract was extracted with methanol and water and clarified by centrifugation and filtration. The alkaloid extract was prepared from sodium hydroxide and methanol extraction, organic phase separation and purification. All treatment samples were prepared as a function of weight (μg/ml), and all samples were diluted in DMSO.
Human […] kidney cells (HEK293) transfected with an NFκB luciferase reporter were challenged with TNFα for three hours, then samples were applied to the challenged cells.

nAChR α3/β4 = nAChR α3/β4 (Homo sapiens, UniProt P30926+P32297); assay: nAChR α3/β4 channel agonist assay (FLIPR, Fluo-8 calcium); details: 0.3-1000 μM; maximal stimulation not achieved
Protocol: as §1, §2
HEK293 or CHO cells were transiently or stably transfected with the appropriate human ion channel cDNAs. Stable transfectants were selected by coexpression with the antibiotic-resistance gene(s) incorporated into the expression plasmid(s). Selection pressure was maintained by including selection antibiotics in the culture medium. HEK293 cells were cultured in Dulbecco's Modified Eagle Medium/Nutrient Mixture F-12 (D-MEM/F-12) supplemented with 10% fetal bovine serum, 100 U/mL penicillin G sodium, 100 g/mL streptomycin sulfate and appropriate selection antibiotics. CHO cells were cultured in Ham's F-12 supplemented with 10% fetal bovine serum, 100 U/mL penicillin G sodium, 100 g/mL streptomycin sulfate and appropriate selection antibiotics.
For FLIPR TETRA™ assay, cells were plated in 384-well black wall, flat clear bottom microtiter plates (Type: BD Biocoat Poly-D-Lysine Multiwell Cell Culture Plate) at 20,000 to 30,000 cells per well (384-well plate). Cells were incubated at 37° C. overnight or until the cells reached a sufficient density in the wells (near confluent monolayer) to use in fluorescence assays. For α4β2 assay, cells were incubated at 27° C. for at least 7 hours before use.
Experiments were performed with either the FLIPR calcium sensitive dye kit (Fluo-8, ABDbioquest, for nAChR α3/β4 and nAChR α7) or FLIPR membrane potential kit (Molecular Devices, for nAChR α4/β2) according to the manufacturer's instructions. Briefly, cells were incubated with 201 dye for 30 min at 37° C. After dye loading period, for the agonist assay, 5 μl of the test, vehicle, or control articles at concentration of 5 times of final concentration were applied to the cells without stimulation. For the positive allosteric modulation (PAM) and antagonist assay, after test article application, the cells were stimulated with either low dose (for PAM) or high dose (for antagonist) of Ach.
Concentration-response data was fitted to a Hill equation of the following form:
where Base is the response at low concentrations of test article, Max is the maximum response at high concentrations, xhalf is the EC50 or IC50, the concentration of test article producing either half-maximal activation or inhibition, and rate is the Hill coefficient. Nonlinear least squares fits were made assuming a simple one-to-one binding model.
The ability of both test articles to act as an agonist of nAChR carried out in the absence of the positive control agonist. The signal elicited in the presence of the positive control agonist, 30 μM acetylcholine (Ach) was set to 100% and the signal from the vehicle control, HEPES-buffered physiological saline (HBPS) solution was set to 0%.

[2] = Physical signs after single i.v. dose (Example 3); format: in vivo, Sprague-Dawley rats; details: anatabine 0.1, 0.75, 1.0 mg/kg single i.v., rats
Protocol: Four aliquots of each dose level formulation were collected and stored at −80° C. The test compound, corresponding dose level, number of animals, and sample collection times for Phase I of the study are shown in Table 3. The test compound, corresponding dose level, number of animals, and sample collection times for Phase II of the study are shown in Table 4. The physical signs of each animal were monitored following administration of the test compound.

[3] = Body weights, weight gain and food consumption over 14 days after single i.v. dose; format: in vivo, Sprague-Dawley rats; details: individual rats
Protocol: Body weight and food consumption was measured daily for 14 days. On day 15, urine was collected on all surviving animals. The animals were euthanized and bled via cardiac puncture, and blood was collected for analysis. Tissues were collected, weighed, evaluated for gross abnormalities, and stored in 10% neutral-buffered formalin.
All animals were observed daily.

T2 sequence (P17787 26-502): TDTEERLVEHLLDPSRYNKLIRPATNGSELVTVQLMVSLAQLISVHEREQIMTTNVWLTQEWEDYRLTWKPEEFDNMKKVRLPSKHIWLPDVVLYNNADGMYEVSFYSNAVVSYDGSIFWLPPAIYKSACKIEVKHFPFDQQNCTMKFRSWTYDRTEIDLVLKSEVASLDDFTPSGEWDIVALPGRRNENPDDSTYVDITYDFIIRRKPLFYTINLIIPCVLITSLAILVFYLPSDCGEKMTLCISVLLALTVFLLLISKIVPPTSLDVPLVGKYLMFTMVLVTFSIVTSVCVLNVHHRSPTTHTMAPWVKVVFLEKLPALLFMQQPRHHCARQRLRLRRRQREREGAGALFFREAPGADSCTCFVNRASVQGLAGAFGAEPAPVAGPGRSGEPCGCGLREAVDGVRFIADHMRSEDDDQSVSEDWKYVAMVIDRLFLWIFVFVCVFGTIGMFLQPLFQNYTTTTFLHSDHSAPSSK
T2 sequence (P43681 29-627): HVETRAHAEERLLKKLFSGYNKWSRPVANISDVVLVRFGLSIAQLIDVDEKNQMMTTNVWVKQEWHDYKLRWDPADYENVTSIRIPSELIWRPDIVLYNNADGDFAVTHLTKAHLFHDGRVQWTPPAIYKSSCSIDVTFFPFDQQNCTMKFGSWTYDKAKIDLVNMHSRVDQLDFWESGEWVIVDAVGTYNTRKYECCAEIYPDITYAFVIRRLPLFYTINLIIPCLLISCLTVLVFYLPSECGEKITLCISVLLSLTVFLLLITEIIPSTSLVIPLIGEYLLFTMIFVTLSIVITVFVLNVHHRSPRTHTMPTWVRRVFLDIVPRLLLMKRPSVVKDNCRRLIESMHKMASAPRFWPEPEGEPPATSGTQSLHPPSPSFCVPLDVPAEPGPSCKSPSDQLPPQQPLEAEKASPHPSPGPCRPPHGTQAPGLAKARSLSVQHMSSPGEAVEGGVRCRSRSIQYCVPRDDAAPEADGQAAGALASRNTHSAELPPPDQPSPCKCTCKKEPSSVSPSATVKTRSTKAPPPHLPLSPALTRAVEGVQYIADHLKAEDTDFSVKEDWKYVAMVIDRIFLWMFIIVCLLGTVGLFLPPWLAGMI
Sequence of nAChR α3/β4 (P32297 32-505): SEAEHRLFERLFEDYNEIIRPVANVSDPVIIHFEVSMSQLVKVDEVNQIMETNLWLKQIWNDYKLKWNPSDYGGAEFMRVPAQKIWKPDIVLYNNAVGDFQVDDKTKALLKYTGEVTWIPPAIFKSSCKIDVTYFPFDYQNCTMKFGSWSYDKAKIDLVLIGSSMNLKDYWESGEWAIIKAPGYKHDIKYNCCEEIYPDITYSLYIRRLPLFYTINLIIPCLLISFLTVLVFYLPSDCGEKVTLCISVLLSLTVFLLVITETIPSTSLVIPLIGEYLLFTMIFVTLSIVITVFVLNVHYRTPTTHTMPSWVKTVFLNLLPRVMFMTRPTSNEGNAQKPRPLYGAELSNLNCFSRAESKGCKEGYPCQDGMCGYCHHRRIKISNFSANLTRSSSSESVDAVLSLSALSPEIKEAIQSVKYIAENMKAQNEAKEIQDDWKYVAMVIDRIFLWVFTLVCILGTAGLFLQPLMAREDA
Sequence of nAChR α3/β4 (P30926 22-498): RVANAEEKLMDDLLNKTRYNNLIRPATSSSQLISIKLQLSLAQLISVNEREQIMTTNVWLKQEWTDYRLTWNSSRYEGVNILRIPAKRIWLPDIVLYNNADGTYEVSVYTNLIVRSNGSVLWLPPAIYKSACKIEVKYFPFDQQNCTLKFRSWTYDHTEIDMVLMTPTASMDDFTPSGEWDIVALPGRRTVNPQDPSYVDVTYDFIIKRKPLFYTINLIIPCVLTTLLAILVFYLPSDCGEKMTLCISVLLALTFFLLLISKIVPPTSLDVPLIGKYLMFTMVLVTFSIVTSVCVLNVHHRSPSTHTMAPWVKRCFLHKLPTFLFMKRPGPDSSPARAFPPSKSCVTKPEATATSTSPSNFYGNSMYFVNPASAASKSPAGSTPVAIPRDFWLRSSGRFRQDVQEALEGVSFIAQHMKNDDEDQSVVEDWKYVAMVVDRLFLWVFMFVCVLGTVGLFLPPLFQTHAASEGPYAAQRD
T1 sequence (P36544 23-502): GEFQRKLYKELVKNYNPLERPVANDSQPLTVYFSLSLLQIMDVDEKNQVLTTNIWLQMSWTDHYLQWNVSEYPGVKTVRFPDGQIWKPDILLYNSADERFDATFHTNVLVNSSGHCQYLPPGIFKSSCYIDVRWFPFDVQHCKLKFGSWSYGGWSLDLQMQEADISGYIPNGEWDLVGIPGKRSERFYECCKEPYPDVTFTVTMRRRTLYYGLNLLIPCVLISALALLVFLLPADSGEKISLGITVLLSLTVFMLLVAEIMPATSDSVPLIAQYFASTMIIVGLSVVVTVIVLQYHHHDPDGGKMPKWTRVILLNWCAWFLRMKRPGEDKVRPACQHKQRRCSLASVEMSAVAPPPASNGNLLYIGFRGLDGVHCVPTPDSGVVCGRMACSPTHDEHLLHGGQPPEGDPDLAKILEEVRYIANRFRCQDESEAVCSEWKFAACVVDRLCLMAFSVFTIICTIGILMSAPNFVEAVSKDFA

Q: For `C1=CCC(c2cccnc2)NC1` (racemic) [Anatabine, 1,2,3,6-tetrahydro-[2,3′]bipyridinyl], which agonist activity (nAChR α7) is on record?
A: showed agonist activity

Q: What about the “inhibition of receptor activity” value (nAChR α4/β2) of the same compound?
A: inhibited receptor activity

Q: What about the “TNFα-induced NFκB-mediated transcription of luciferase” value [1] of the same compound?
A: can reduce this transcription to control levels

Q: What about the agonist activity (nAChR α3/β4) of the same compound?
A: showed agonist activity

Q: And the physical signs [2]?
A: no obvious adverse signs were observed

Q: And the “day 1 B.W.” value ([3]; 0.1 mg/kg, F)?
A: 211.1 g and 201.0 g and 210.9 g

Q: What about the “day 2 B.W.” value ([3]; 0.1 mg/kg, F) of the same compound?
A: 223.9 g and 215.1 g and 208.1 g and 208.8 g and 212.8 g

Q: And the “day 3 B.W.” value ([3]; 0.1 mg/kg, F)?
A: 230.8 g and 213.2 g and 209.1 g (2×) and 219.3 g

Q: And the “day 4 B.W.” value ([3]; 0.1 mg/kg, F)?
A: 242.3 g and 222.4 g and 220.7 g and 211.4 g and 224.7 g

Q: What about the “day 5 B.W.” value ([3]; 0.1 mg/kg, F) of the same compound?
A: 246.9 g and 226.4 g and 219.3 g and 221.0 g and 229.5 g

Q: And the “day 6 B.W.” value ([3]; 0.1 mg/kg, F)?
A: 241.1 g and 235.5 g and 220.1 g and 218.8 g and 222.9 g

Q: What about the “day 7 B.W.” value ([3]; 0.1 mg/kg, F) of the same compound?
A: 246.5 g and 226.4 g and 221.7 g and 222.1 g and 232.1 g

Q: What about the “day 8 B.W.” value ([3]; 0.1 mg/kg, F) of the same compound?
A: 252.0 g and 232.0 g and 227.0 g and 235.0 g

Q: And the “day 9 B.W.” value ([3]; 0.1 mg/kg, F)?
A: 255.1 g and 239.9 g and 224.1 g and 232.0 g

Q: And the “day 11 B.W.” value ([3]; 0.1 mg/kg, F)?
A: 274.8 g and 238.5 g and 233.9 g and 245.6 g and 245.4 g

Q: What about the “day 12 B.W.” value ([3]; 0.1 mg/kg, F) of the same compound?
A: 277.2 g and 246.3 g and 242.0 g and 240.0 g and 241.6 g

Q: What about the “day 13 B.W.” value ([3]; 0.1 mg/kg, F) of the same compound?
A: 271.8 g and 241 g and 242.1 g

Q: What about the “day 14 B.W.” value ([3]; 0.1 mg/kg, F) of the same compound?
A: 272.7 g and 248.5 g and 243.9 g and 255.6 g and 239.2 g

Q: What about the “day 1 B.W.” value ([3]; 0.1 mg/kg, M) of the same compound?
A: 233.7 g and 235.0 g and 243.5 g and 239.9 g

Q: What about the “day 2 B.W.” value ([3]; 0.1 mg/kg, M) of the same compound?
A: 257.0 g and 235.1 g and 231.0 g and 253.5 g and 247.3 g

Q: And the “day 3 B.W.” value ([3]; 0.1 mg/kg, M)?
A: 270.0 g and 251.0 g and 252.0 g and 259.4 g

Q: And the “day 4 B.W.” value ([3]; 0.1 mg/kg, M)?
A: 286.0 g and 270.0 g and 271.2 g and 280.5 g and 273.7 g

Q: And the “day 5 B.W.” value ([3]; 0.1 mg/kg, M)?
A: 296.5 g and 273.8 g and 278.5 g and 288.3 g and 286.6 g

Q: What about the “day 6 B.W.” value ([3]; 0.1 mg/kg, M) of the same compound?
A: 301.8 g and 278 g and 284.3 g and 288.3 g and 219.6 g

Q: And the “day 7 B.W.” value ([3]; 0.1 mg/kg, M)?
A: 318.2 g and 293.8 g and 297.6 g and 301.2 g and 300.7 g

Q: What about the “day 8 B.W.” value ([3]; 0.1 mg/kg, M) of the same compound?
A: 327.0 g and 309.0 g and 310.0 g and 311.0 g

Q: And the “day 9 B.W.” value ([3]; 0.1 mg/kg, M)?
A: 336.8 g and 303.4 g and 310.0 g and 318.7 g and 317.4 g

Q: What about the “day 10 B.W.” value ([3]; 0.1 mg/kg, M) of the same compound?
A: 346.4 g and 312.9 g and 319.9 g and 322.3 g and 330.4 g

Q: And the “day 11 B.W.” value ([3]; 0.1 mg/kg, M)?
A: 365.7 g and 331.0 g and 343.8 g and 346.9 g and 348.8 g

Q: What about the “day 12 B.W.” value ([3]; 0.1 mg/kg, M) of the same compound?
A: 359.9 g and 320.0 g and 341.9 g and 347.3 g and 360.9 g

Q: And the “day 13 B.W.” value ([3]; 0.1 mg/kg, M)?
A: 367 g and 331 g and 349 g and 334.4 g and 360 g

Q: And the “day 14 B.W.” value ([3]; 0.1 mg/kg, M)?
A: 391.0 g and 347.3 g and 368.8 g and 353.5 g and 373.8 g

Q: What about the “day 1 B.W.” value ([3]; 0.75 mg/kg, F) of the same compound?
A: 208.9 g and 207.7 g and 219.1 g and 196.7 g and 199.5 g

Q: What about the “day 2 B.W.” value ([3]; 0.75 mg/kg, F) of the same compound?
A: 206.2 g and 210.0 g (2×) and 225.5 g and 210.1 g

Q: What about the “day 3 B.W.” value ([3]; 0.75 mg/kg, F) of the same compound?
A: 214.0 g (2×) and 224.8 g and 213.6 g and 210.8 g

Q: And the “day 6 B.W.” value ([3]; 0.75 mg/kg, F)?
A: 224.4 g and 217.8 g and 236.2 g and 214.7 g and 221.4 g

Q: And the “day 7 B.W.” value ([3]; 0.75 mg/kg, F)?
A: 227.4 g and 243.2 g and 222 g and 219.3 g

Q: And the “day 8 B.W.” value ([3]; 0.75 mg/kg, F)?
A: 232.0 g and 220.0 g and 243.0 g and 224.6 g and 227.4 g

Q: What about the “day 9 B.W.” value ([3]; 0.75 mg/kg, F) of the same compound?
A: 237.3 g and 226.3 g and 247.6 g and 229.1 g and 230.6 g

Q: What about the “day 10 B.W.” value ([3]; 0.75 mg/kg, F) of the same compound?
A: 239.3 g and 232.2 g and 252.7 g and 230.9 g and 233.5 g

Q: And the “day 11 B.W.” value ([3]; 0.75 mg/kg, F)?
A: 250.9 g and 239.1 g and 268.8 g and 240.9 g and 244.1 g

Q: What about the “day 12 B.W.” value ([3]; 0.75 mg/kg, F) of the same compound?
A: 249.7 g and 233.5 g and 259.6 g and 241.6 g and 247.9 g

Q: What about the “day 13 B.W.” value ([3]; 0.75 mg/kg, F) of the same compound?
A: 248 g and 237.2 g and 268 g and 234 g and 243 g

Q: And the “day 14 B.W.” value ([3]; 0.75 mg/kg, F)?
A: 251.5 g and 242.8 g and 274.1 g and 250.7 g and 250.6 g

Q: And the “day 4 B.W.” value ([3]; 0.75 mg/kg, F, second one headed day 4)?
A: 225.4 g and 219.3 g and 237.1 g and 220.8 g and 227.6 g

Q: And the “day 4 B.W.” value ([3]; 0.75 mg/kg, F, day 4)?
A: 230.0 g and 214.7 g and 232.4 g and 222.1 g and 220.0 g
